For one data set, the target named is T1, DHR23α (Drosophila melanogaster, UniProt P34021).
T1 construct: To isolate the full-length DHR23α clones; expressed in transfected cells; host or cells: human 293 cells
T1 sequence (P34021 1-878): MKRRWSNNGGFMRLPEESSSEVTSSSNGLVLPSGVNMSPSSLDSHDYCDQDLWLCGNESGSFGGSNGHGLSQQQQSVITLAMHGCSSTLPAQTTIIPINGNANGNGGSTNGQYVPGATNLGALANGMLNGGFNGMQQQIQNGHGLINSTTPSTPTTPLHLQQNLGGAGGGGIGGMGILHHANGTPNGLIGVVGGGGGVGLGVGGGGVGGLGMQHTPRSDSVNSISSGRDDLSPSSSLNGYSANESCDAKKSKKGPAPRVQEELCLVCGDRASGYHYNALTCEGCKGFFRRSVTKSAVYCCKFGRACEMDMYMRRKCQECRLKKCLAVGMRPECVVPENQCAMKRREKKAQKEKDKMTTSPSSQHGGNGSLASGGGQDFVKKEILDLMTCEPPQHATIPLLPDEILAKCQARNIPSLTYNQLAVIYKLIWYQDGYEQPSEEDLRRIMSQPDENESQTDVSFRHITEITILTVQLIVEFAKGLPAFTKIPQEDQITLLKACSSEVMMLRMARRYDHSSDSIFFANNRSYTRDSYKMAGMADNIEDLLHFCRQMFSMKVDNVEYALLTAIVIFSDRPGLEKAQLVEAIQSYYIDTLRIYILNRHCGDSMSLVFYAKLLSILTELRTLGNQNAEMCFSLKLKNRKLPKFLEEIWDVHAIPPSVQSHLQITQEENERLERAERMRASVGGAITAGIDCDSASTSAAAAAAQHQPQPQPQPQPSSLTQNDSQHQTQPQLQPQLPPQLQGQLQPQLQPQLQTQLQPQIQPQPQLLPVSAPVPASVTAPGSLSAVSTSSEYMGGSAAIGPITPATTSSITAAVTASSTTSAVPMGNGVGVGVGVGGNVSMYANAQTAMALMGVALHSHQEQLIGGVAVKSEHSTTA
T1 sequence (P19793 1-462 partner): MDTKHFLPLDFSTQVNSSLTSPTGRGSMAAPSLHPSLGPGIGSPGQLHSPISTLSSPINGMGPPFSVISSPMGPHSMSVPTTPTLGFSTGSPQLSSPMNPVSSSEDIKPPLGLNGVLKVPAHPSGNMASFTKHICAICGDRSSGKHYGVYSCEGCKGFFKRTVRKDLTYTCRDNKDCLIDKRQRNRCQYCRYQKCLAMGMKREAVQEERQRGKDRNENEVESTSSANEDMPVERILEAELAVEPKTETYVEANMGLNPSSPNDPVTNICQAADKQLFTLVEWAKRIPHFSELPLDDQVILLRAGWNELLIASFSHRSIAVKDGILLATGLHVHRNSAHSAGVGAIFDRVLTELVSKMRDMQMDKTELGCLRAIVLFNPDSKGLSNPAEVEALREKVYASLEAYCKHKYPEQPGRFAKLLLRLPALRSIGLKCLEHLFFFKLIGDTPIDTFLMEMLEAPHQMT
The data set can be described thus: DHR23α transactivation of EcRE (Ec4M-77CO) CAT reporter in transfected human 293 cells. Format: cell-based. The note with it: pRSV.DHR23α + pEc4M-77CO (EcRE) CAT reporter, ligand 1 µM, 48 hrs. The protocol:
Figure. 2. […] Human 293 cells were cotransfected with 2.5 µg of the expression plasmid pRSV.DHR23α or the parental expression plasmid pRSV (Control) and 0.5 µgs of the reporter plasmid pEc4M-77CO (EcRE) or pG4M-77CO (GRE). As a control for transfection efficiency, 0.5 µgs of the control plasmid pRSV.hGH was included in the transfection mixture. After transfection, cells were treated without (-) or with alpha-ecdysone (alpha), 20-OH ecdysone (20-OH), polypodine B (ppB), ponasterone A (ponA) or muristeroine A (murA). CAT extracts were harvested 48 hrs after transfection and assayed. The values were normalized to the expression of hGH and the average values of three independent experiments are shown. The "fold induction" represents the level of expression of the reporter gene in cells incubated with hormone divided by the expression of that reporter gene in extracts from cells incubated in the absence of added ligand.
I determined whether DHR23α could function in mammalian cells treated with ecdysteroids to enhance the transcription of a reporter gene containing EcREs linked to the murine mammary tumor virus (MTV) promoter and chloramphenicol acetyltransferase (CAT) gene. Human 293 cells were cotransfected with an RSV-based expression vector that encodes DHR23a and the reporter gene Ec4M-77CO that contains 4 copies of an ecdysone response element (EcRE) from the Drosophila HSP27 promoter (G. Riddihough and H. R. B. Pelham, EMBO J. 6, 3729 [1987]) linked to an MTV promoter-CAT construct.
Human 293 cells were cotransfected with 2.5 µg of the expression plasmid pRSV.DHR23α or the parental expression plasmid pRSV (Control) and 0.5 µgs of the reporter plasmid pEc4M-77CO (EcRE) or pG4M-77CO (GRE). As a control for transfection efficiency, 0.5 µgs of the control plasmid pRSV.hGH was included in the transfection mixture. After transfection, cells were treated without (-) or with alpha-ecdysone (alpha), 20-OH ecdysone (20-OH), polypodine B (ppB), ponasterone A (ponA) or muristeroine A (murA). All candidate ligands were added at a concentration of 1 µM. CAT extracts were harvested 48 hrs after transfection, and assays were performed as described (D. R. Cavener, Nucl. Acids Res. 15, 1353-1361 [1987]). The values were normalized to the expression of hGH and the average values of three independent experiments are shown in Figure 2. The "fold induction" represents the level of expression of the reporter gene in cells incubated with hormone divided by the expression of that reporter gene in extracts from cells incubated in the absence of added ligand.
Cells were transfected with the DHR23α expression vector and Ec4M-77CO reporter gene and treated without (-) or with the following hormones (1 µM): muristerone A (mur A) dexamethasone (Dex) 17β-estradiol (E2), aldosterone (Aldo), corticosterone (Cort) hydroxycorticosterone (OH-Cort) thyroid hormone (T3), promegestone (Promeg) or 1,25-dihydroxy vitamin D3 (VD3). Reporter gene activity was determined as described above for Figure 2.

In another data set the test system is drosophila cell lines. The following applies: cited from earlier work.
Another data set deals with T2, GGEc (Drosophila melanogaster, UniProt P34021).
T2 construct: expressed in transfected cells; host or cells: 293 cells
T2 sequence (P34021 329-878): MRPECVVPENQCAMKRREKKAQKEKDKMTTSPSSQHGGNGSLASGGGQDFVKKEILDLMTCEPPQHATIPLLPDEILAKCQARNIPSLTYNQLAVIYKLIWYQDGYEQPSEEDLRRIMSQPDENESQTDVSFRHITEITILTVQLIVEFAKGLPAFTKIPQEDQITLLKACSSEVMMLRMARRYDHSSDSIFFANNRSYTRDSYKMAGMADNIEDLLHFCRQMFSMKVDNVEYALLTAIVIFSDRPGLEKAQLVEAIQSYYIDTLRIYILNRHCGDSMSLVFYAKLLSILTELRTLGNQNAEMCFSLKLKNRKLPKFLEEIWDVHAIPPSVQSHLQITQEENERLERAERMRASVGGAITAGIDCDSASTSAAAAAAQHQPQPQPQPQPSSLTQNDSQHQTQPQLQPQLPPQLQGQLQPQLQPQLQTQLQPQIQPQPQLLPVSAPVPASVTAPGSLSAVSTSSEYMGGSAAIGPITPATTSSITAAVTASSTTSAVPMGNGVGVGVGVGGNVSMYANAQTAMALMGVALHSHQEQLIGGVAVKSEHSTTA
The data set can be described thus: Induction of GRE reporter G4M-77CO by chimeric receptor GGEc in 293 cells. Format: cell-based. The note with it: GRE reporter G4M-77CO. The source says: I choose to determine if the ligand-binding domain of DHR23a could be used to regulate the DNA-binding and transactivation domains of the mammalian glucocorticoid receptor for the following reasons. First, in contrast to DHR23α, high affinity DNA-binding sites for the GR have been identified (M. Beato, Cell 56, 335 [1989]) and reporter genes containing these sites are very strongly regulated. Thus, the sensitivity of our assays could be increased. Secondly, these chimeric receptors could be utilized to selectively regulate endogenous genes in mammalian cells in response to ecdysteroids. I constructed a chimeric gene, GGEc, in which the sequences encoding the ligand-binding domain of the GR were replaced with that of DHR23α (Fig. 4A). […] However, expression of the GRE-containing reporter gene was induced more than 700 fold by GGEc in muristerone-treated cells.

The target of a further data set is T3, GGG (Rattus norvegicus, UniProt P06536).
T3 sequence (P06536 1-795): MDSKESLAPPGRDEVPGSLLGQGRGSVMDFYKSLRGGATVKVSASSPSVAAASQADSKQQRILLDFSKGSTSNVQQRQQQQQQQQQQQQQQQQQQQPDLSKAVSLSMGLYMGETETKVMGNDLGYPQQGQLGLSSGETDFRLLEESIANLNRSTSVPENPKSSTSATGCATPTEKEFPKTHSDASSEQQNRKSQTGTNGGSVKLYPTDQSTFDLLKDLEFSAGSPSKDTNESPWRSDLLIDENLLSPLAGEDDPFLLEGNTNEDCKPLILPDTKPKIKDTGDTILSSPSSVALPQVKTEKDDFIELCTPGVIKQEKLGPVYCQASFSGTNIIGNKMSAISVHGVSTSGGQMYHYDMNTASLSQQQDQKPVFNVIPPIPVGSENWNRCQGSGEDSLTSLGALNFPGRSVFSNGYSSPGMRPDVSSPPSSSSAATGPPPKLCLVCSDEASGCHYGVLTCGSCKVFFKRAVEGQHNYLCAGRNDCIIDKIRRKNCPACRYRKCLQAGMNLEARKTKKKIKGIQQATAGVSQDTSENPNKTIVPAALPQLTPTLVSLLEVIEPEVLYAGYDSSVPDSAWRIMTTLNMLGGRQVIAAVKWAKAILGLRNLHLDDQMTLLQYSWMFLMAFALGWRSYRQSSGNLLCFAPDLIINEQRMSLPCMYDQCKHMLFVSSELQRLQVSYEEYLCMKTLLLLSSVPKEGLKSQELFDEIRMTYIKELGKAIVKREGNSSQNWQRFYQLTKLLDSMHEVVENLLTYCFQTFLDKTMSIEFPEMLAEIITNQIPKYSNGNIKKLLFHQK
The data set can be described thus: Induction of GRE reporter G4M-77CO by GGG (glucocorticoid receptor) in 293 cells. The note with it: normalized to hGH, SD in parentheses, 2880 min.

As a reminder, the fold induction is the ratio of treated to control signal.

As for `CC(C)(O)CC[C@@H](O)[C@](C)(O)[C@H]1CC[C@@]2(O)C3=CC(=O)[C@@H]4C[C@@H](O)[C@@H](O)C[C@]4(C)[C@H]3CC[C@]12C` [20-OH ecdysone], the “agonist for DHR23α in mammalian cells (expression of the reporter gene)” value (“agonist for DHR23α in mammalian cells” for short) at DHR23α was “Neither α-ecdysone, 20-OH ecdysone, nor polypodine B acted as agonists”; at DHR23α (1 µM), “inactive”. Also, the “agonist activity in drosophila cell lines” value with drosophila cell lines is “agonists”. The “relative efficacies of ecdysteroids as agonists for the chimeric receptor” value (shortened to “relative efficacies of ecdysteroids”) at GGEc is “neither α-ecdysone, 20-OH ecdysone or polypodine B acted as agonists”.
On to `C[C@@H]1C[C@H]2[C@@H]3CCC4=CC(=O)C=C[C@]4(C)[C@@]3(F)[C@@H](O)C[C@]2(C)[C@@]1(O)C(=O)CO` [dexamethasone], for which the fold induction at GGG is recorded as 347 fold.
As for `CC(C)(O)CC[C@@H](O)[C@](C)(O)[C@H]1CC[C@@]2(O)C3=CC(=O)[C@]4(O)C[C@@H](O)[C@@H](O)C[C@]4(C)[C@H]3CC[C@]12C` [polypodine B], the “agonist for DHR23α in mammalian cells” value on DHR23α is “Neither α-ecdysone, 20-OH ecdysone, nor polypodine B acted as agonists”. Besides, in the data set on drosophila cell lines, the “agonist activity in drosophila cell lines” value was “agonists”. Moreover, on GGEc, the “relative efficacies of ecdysteroids” value was “neither α-ecdysone, 20-OH ecdysone or polypodine B acted as agonists”.
Take `CC(C)CC[C@@H](O)[C@](C)(O)[C@H]1CC[C@@]2(O)C3=CC(=O)[C@@H]4C[C@@H](O)[C@@H](O)C[C@]4(C)[C@H]3CC[C@]12C` [ponasterone A]: the “agonist for DHR23α in mammalian cells” value at DHR23α is on record as “weak agonist”. Also, at GGEc, the “relative efficacies of ecdysteroids” value is on record as “weak”.
On to `C[C@H]([C@H](O)CCC(C)(C)O)[C@H]1CC[C@@]2(O)C3=CC(=O)[C@@H]4C[C@@H](O)[C@@H](O)C[C@]4(C)[C@H]3CC[C@]12C` [α-ecdysone], for which the “agonist for DHR23α in mammalian cells” value on DHR23α is given as “Neither α-ecdysone, 20-OH ecdysone, nor polypodine B acted as agonists”. The “relative efficacies of ecdysteroids” value at GGEc was “neither α-ecdysone, 20-OH ecdysone or polypodine B acted as agonists”.
